How the values were obtained:
dog STING (dSTING) = assay: Dog differential scanning fluorimetry (DSF) assay, thermal shift of dog STING protein; assay type: binding; details: DSF (dDSF); 100 μM compound, 3 μM dog STING protein; Tm with ligand minus Tm of protein alone
In short: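 Dog STING residues 149–375, His-tag removed by TEV, tested at 3 μM with 100 μM compound, 5× SYPRO Orange and 2% DMSO in 20 mM Tris, 150 mM NaCl, pH 7.5. Heated 15–95 °C in 0.5 °C steps. Tm from Boltzmann fit, duplicates averaged; ΔTm relative to protein alone.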

STING = STING (Canis lupus familiaris, UniProt A0A8I3MH52); assay: Dog whole blood (dWB) assay, IFNb secretion by ELISA; assay type: cell-based; details: canine Interferon-beta (IFNb) ELISA, 4 h incubation at 37° C.
In short: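 Citrated dog whole blood (stored overnight at 4 °C) was preincubated with compound for 60 min at room temperature, top concentration 10 μM with about 1:4 steps and 0.1% DMSO. It was then incubated 4 h at 37 °C, with cGAMP added only to the high-control wells. Plasma IFNb was measured by canine ELISA (A450), normalised to the cGAMP-stimulated and unstimulated controls, and EC50 was fitted with a 4-parameter logistic model.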

Chain of STING (A0A8I3MH52 1-374): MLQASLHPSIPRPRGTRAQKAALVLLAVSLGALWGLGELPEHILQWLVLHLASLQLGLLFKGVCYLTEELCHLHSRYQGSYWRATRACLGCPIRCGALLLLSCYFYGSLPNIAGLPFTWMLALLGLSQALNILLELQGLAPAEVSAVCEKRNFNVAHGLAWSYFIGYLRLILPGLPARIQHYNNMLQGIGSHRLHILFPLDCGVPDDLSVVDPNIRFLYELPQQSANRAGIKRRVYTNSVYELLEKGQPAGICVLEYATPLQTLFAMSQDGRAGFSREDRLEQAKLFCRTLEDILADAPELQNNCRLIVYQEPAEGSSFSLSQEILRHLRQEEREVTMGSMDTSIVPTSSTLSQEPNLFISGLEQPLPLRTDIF

SMILES: Cc1cccc2c(-c3ccc(F)c4nn(C)cc34)nn(-c3ccc(N4CCC(C(=O)O)CC4)nc3)c12 [Example 4, 1-(5-{7″-Fluoro-2″,7-dimethyl-1H,2″H-[3,4″-biindazol]-1-yl}pyridin-2-yl)piperidine-4-carboxylic acid]
- Delta TM (dog STING (dSTING)): 31.0 °C
- EC50 (STING): 757 nM

SMILES: Cc1c(F)ccc2c(-c3cccc4nn(C)c(F)c34)nn(-c3ccc(N4CCC(C(=O)O)CC4)nc3)c12 [Example 60, 1-(5-{3″,6-difluoro-2″,7-dimethyl-1H,2″H-[3,4″-biindazol]-1-yl}pyridin-2-yl)piperidine-4-carboxylic acid]
- Delta TM (dog STING (dSTING)): 34.5 °C
- EC50 (STING): 195 nM

SMILES: Cc1cccc2c(-c3c(F)cc(F)c4nn(C)cc34)nn(-c3ccc(N4C[C@H]5C[C@@H]4C[C@@H]5C(=O)O)nc3)c12 (single isomer, unassigned) [Example 47-2]
- Delta TM (dog STING (dSTING)): 35.5 °C
- EC50 (STING): 200 nM

SMILES: CC(=O)N1CCN(c2ccc(-n3nc(-c4cccc5nn(C)c(F)c45)c4cc(F)cc(C)c43)cn2)CC1 [Example 59, 1-[4-(5-{3″,5-difluoro-2″,7-dimethyl-1H,2″H-[3,4″-biindazol]-1-yl}pyridin-2-yl)piperazin-1-yl]ethan-1-one]
- Delta TM (dog STING (dSTING)): 22.0 °C
- EC50 (STING): 207 nM

SMILES: Cc1cccc2c(-c3c(F)cc(F)c4nn(C)cc34)nn(-c3ccc(N4CC[C@H](CC(=O)O)C4)nc3)c12 [Example 46, 2-[(3R)-1-(5-{5″,7″-difluoro-2″,7-dimethyl-1H,2″H-[3,4″-biindazol]-1-yl}pyridin-2-yl)pyrrolidin-3-yl]acetic acid]
- Delta TM (dog STING (dSTING)): 35.3 °C
- EC50 (STING): 261 nM

SMILES: CC(=O)N1C[C@@H]2C[C@H]1CN2c1ccc(-n2nc(-c3cccc4nn(C)c(F)c34)c3cccc(C)c32)cn1 [Example 21, 1-[(1S,4S)-5-(5-{3″-fluoro-2″,7-dimethyl-1H,2″H-[3,4″-biindazol]-1-yl}pyridin-2-yl)-2,5-diazabicyclo[2.2.1]heptan-2-yl]ethan-1-one]
- Delta TM (dog STING (dSTING)): 24.9 °C
- EC50 (STING): 1010 nM

SMILES: Cc1cccc2c(-c3cccc4nn(C)c(F)c34)nn(-c3ccc(N4CC5CCC4CC5C(=O)O)nc3)c12 (single isomer, unassigned) [Example 20-3, 2-(5-{3'-fluoro-2',7-dimethyl-1H,2'H-[3,4'-biindazol]-1-yl}pyridin-2-yl)-2-azabicyclo[2.2.2]octane-5-carboxylic acid]
- Delta TM (dog STING (dSTING)): 35.9 °C
- EC50 (STING): 195 nM

SMILES: Cc1cccc2c(-c3c(Cl)ccc4nn(C)cc34)nn(-c3ccc(N4C[C@@H]5[C@H](C4)[C@H]5C(=O)O)nc3)c12 [Example 77, (1R,5S,6S)-3-(5-{5″-chloro-2″,7-dimethyl-1H,2″H-[3,4″-biindazol]-1-yl}pyridin-2-yl)-3-azabicyclo[3.1.0]hexane-6-carboxylic acid]
- Delta TM (dog STING (dSTING)): 27.4 °C
- EC50 (STING): 1090 nM

SMILES: Cc1cccc2c(-c3ccc(F)c4nn(C)c(F)c34)nn(-c3ccc(N4CC[C@H](CC(=O)O)C4)nc3)c12 [Example 55, 2-[(3R)-1-(5-{3″,7″-difluoro-2″,7-dimethyl-1H,2″H-[3,4″-biindazol]-1-yl}pyridin-2-yl)pyrrolidin-3-yl]acetic acid]
- Delta TM (dog STING (dSTING)): 34.5 °C
- EC50 (STING): 197 nM

SMILES: Cc1cc(F)cc2c(-c3c(F)cc(F)c4nn(C)cc34)nn(-c3ccc(N4C[C@@H]5[C@H](C4)[C@H]5C(=O)O)nc3)c12 [Example 15, (1R,5S,6R)-3-(5-{5,5″,7″-Trifluoro-2″,7-dimethyl-1H,2″H-[3,4″-biindazol]-1-yl}pyridin-2-yl)-3-azabicyclo[3.1.0]hexane-6-carboxylic acid]
- Delta TM (dog STING (dSTING)): 36.8 °C
- EC50 (STING): 1170 nM

SMILES: CC(=O)N1CCN(c2ccc(-n3nc(-c4cccc5nn(C)c(F)c45)c4ccc(F)c(C)c43)cn2)CC1 [Example 66, 1-[4-(5-{5″,6-difluoro-2″,7-dimethyl-1H,2″H-[3,4″-biindazol]-1-yl}pyridin-2-yl)piperazin-1-yl]ethan-1-one]
- Delta TM (dog STING (dSTING)): 25.8 °C
- EC50 (STING): 179 nM

SMILES: Cc1cccc2c(-c3c(F)ccc4nn(C)cc34)nn(-c3ccc(N4CC5CCC4CC5C(=O)O)nc3)c12 (single isomer, unassigned) [Example 28-3]
- Delta TM (dog STING (dSTING)): 37.1 °C
- EC50 (STING): 222 nM

SMILES: Cc1cccc2c(-c3cccc4nn(C)c(F)c34)nn(-c3ccc(N4CC[C@@H](CC(=O)O)C4)nc3)c12 [Example 16, 2-[(3S)-1-(5-{3″-fluoro-2″,7-dimethyl-1H,2″H-[3,4″-biindazol]-1-yl}pyridin-2-yl)pyrrolidin-3-yl]acetic acid]
- Delta TM (dog STING (dSTING)): 34.0 °C
- EC50 (STING): 267 nM

SMILES: CC(=O)N1C[C@@H]2C[C@H]1CN2c1ccc(-n2nc(-c3c(F)ccc4nn(C)cc34)c3cccc(C)c32)cn1 [Example 30, 1-[(1S,4S)-5-(5-{5″-fluoro-2″,7-dimethyl-1H,2″H-[3,4″-biindazol]-1-yl}pyridin-2-yl)-2,5-diazabicyclo[2.2.1]heptan-2-yl]ethan-1-one]
- Delta TM (dog STING (dSTING)): 30.8 °C
- EC50 (STING): 227 nM

SMILES: Cc1cccc2c(-c3ccc(F)c4nn(C)c(F)c34)nn(-c3ccc(N4C[C@@H]5[C@H](C4)[C@H]5C(=O)O)nc3)c12 [Example 13, (1R,5S,6R)-3-(5-{3″,7″-Difluoro-2″,7-dimethyl-1H,2″H-[3,4″-biindazol]-1-yl}pyridin-2-yl)-3-azabicyclo[3.1.0]hexane-6-carboxylic acid]
- Delta TM (dog STING (dSTING)): 33.3 °C
- EC50 (STING): 174 nM

SMILES: Cc1c(F)ccc2c(-c3c(F)ccc4nn(C)cc34)nn(-c3ccc(N4C[C@@H]5[C@H](C4)[C@H]5C(=O)O)nc3)c12 [Example 64, (1R,5S,6R)-3-(5-{5″,6-difluoro-2″,7-dimethyl-1H,2″H-[3,4″-biindazol]-1-yl}pyridin-2-yl)-3-azabicyclo[3.1.0]hexane-6-carboxylic acid]
- Delta TM (dog STING (dSTING)): 36.5 °C
- EC50 (STING): 666 nM

SMILES: Cc1cccc2c(-c3c(F)cc(F)c4nn(C)cc34)nn(-c3ccc(N4CC[C@@H](CC(=O)O)C4)nc3)c12 [Example 45, 2-[(3S)-1-(5-{5″,7″-difluoro-2″,7-dimethyl-1H,2″H-[3,4″-biindazol]-1-yl}pyridin-2-yl)pyrrolidin-3-yl]acetic acid]
- Delta TM (dog STING (dSTING)): 33.0 °C
- EC50 (STING): 601 nM

SMILES: Cc1cccc2c(-c3c(F)cc(F)c4nn(C)cc34)nn(-c3ccc(N4C[C@@H]5C[C@H]4C[C@H]5C(=O)O)nc3)c12 (single isomer, unassigned) [Example 47-1]
- Delta TM (dog STING (dSTING)): 34.0 °C
- EC50 (STING): 628 nM

SMILES: Cc1cccc2c(-c3c(F)ccc4nn(C)c(F)c34)nn(-c3ccc(N4C[C@@H]5[C@H](C4)[C@H]5C(=O)O)nc3)c12 [Example 74, (1R,5S,6R)-3-(5-{3″,5″-difluoro-2″,7-dimethyl-1H,2″H-[3,4″-biindazol]-1-yl}pyridin-2-yl)-3-azabicyclo[3.1.0]hexane-6-carboxylic acid]
- Delta TM (dog STING (dSTING)): 36.4 °C
- EC50 (STING): 160 nM

Reference: patent publication US20240174641A1, “HETEROCYCLIC COMPOUNDS CAPABLE OF […]” (Boehringer Ingelheim International GmbH, priority 2022, published 2024)
